Tests used:
[1] = tested on: Human Immunodeficiency Virus type 1 (HIV) strain #237228 in human peripheral blood lymphocytes (PBLs); test: Anti-HIV-1 antiviral activity in acutely infected peripheral blood lymphocytes (CPE and RT activity); assay type: cell-based, Human Immunodeficiency Virus type 1 (HIV); human cells; details: for IC100: Human immunodeficiency virus 1, 144 h, PBL cells, acute HIV-1 infection, day 6, concentration at which virus replication is inhibited (CPE negative or trace, >95% inhibition of RT activity); for antiviral index (Al), PBL cells: only non-toxic concentrations used, 8640 min
Source text: (§1) The antiviral activity of representative compounds of the present invention has been determined at the Antivirals Laboratory, Fairfield Hospital, Fairfield, Victoria, Australia. In this test a stock solution of each compound was made in DMSO, then diluted in culture medium (RF 10) to 2× the final concentration required for test. The final concentration of DMSO was 1% or below. Approximately 250,000 continuous lymphocytes of human origin (MT2 cells) or 750,000 human peripheral blood lymphocytes (PBLs) were exposed to dilutions of each test compound, then immediately infected with Human Immunodeficiency Virus type 1 (HIV) strain #237228 (a clinical isolate obtained from a human source). The infectivity titers were expressed as tissue culture 50% infective dose (TCID50 per ml) with 1 TCID50 corresponding to the amount of supernatant required to infect 50% of the replicate cell cultures. The 250 and 200 TCID50 were used for MT2 and PBL cells respectively. The cell/drug/virus mixture was then incubated at 37° C./CO2 in a 24-well microtitre plate. Fresh amounts of the appropriate dilution of each drug were added to both MT2 and PBL cultures at day 3. At day 6, the extent of HIV-specific cytopathic effects (CPE) associated with each concentration of test compound in each of the cultures was rated according to the following scale:
(§2) 4+: 75-100% of cells showing 3+: good CPE
(§3) 3+: 50-75% of cells showing 2+: moderate CPE
(§4) 2+: 25-50% of cells showing 1+: low CPE
(§5) 1+: 5-25% of cells showing trace: minimal CPE
(§6) +/-: less than 5% CPE Negative: no CPE
(§7) The activity of the compounds at each concentration was also assessed by their ability to inhibit viron-associated reverse transcriptase (RT) activity in the culture supernates. At the time of rating of CPE, supernatant fluids from each well were removed and RT activity measured using a standard assay. CPE ratings of negative, ± (in MT2 cells) or trace (in PBLs), with greater than 95% inhibition of RT activity, was considered to represent IC100 (the concentration of compound at which the virus replication is inhibited). Control cultures included in each test were:
(§8) (a) HIV-infected cells in the absence of test compound.
(§9) (b) Uninfected cells in the absence of tested compound.
(§10) (c) Cell toxicity control consisting of uninfected cells treated with dilutions of test compound.
(§11) At the conclusion of each experiment, viable cells in these cultures, as determined by tryptan blue exclusion, were compared with the counts obtained in (b), above.

HIV-1 protease = HIV-1 protease (Human immunodeficiency virus type 1 group M subtype B, UniProt P04585); test: HIV-1 protease-inhibiting activity; assay type: biochemical; details: half-maximal inhibition of HIV-1 protease
Source text: The HIV protease-inhibiting activity of representative compounds of the present invention has been tested by known methods (Brinkworth, R. I., et al., Biochem. Biophys. Res. Commun. 176, 241, (1991); McLeod, D. A., et al., Bioorganic & Medicinal Chemistry Letters (1991) 653-658).

[2] = tested on: Human Immunodeficiency Virus type 1 (HIV) strain #237228 in MT2 cells; test: Anti-HIV-1 antiviral activity in acutely infected MT2 cells (CPE and RT activity); assay type: cell-based; details: for IC100: Human immunodeficiency virus 1, 144 h, acute HIV-1 infection, day 6, concentration at which virus replication is inhibited (CPE negative or ±, >95% inhibition of RT activity); for antiviral index (Al), MT2 cells: only non-toxic concentrations used, 8640 min
Source text: as §1, §2, §3, §4, §5, §6, §7, §8, §9, §10, §11

MT2 cells and PBLs = test: Toxicity to the cells (viable cells, trypan blue exclusion); assay type: cell-based, human; details: compared to AZT (azidothymidine), in words
Source text: as §10, §11

| Compound | IC100 [1] [µM] | antiviral index (Al), PBL cells [1] | IC50 (HIV-1 protease) [nM] | IC100 [2] [µM] | antiviral index (Al), MT2 cells [2] | toxicity to the cells compared to AZT (MT2 cells and PBLs) |
| --- | --- | --- | --- | --- | --- | --- |
| CC(C)(C)OC(=O)N1CC2CCCCC2CN1CC(O)[C@H](Cc1ccccc1)NC(=O)[C@H](CC(N)=O)NC(=O)c1ccc2ccccc2n1 (stereo partly drawn) [Compound 2a, cis-1,6-3-t-Butoxycarbonyl-4-[(2RS,3S)-2-hydroxy-3-(N-quinaldyl-L-asparaginyl)amino-4-phenylbutyl]-3,4daza-bicylo[4.4.0]decane] | 0.1 | 100 | 5.4 ± 0.54 | 0.1 | 50 |  |
| CC(C)N(C[C@@H](O)[C@H](Cc1ccccc1)NC(=O)[C@H](CC(N)=O)NC(=O)c1ccc2ccccc2n1)NC(=O)OC(C)(C)C [Compound 7A, t-Butyl 3-Isopropyl-3-[(2R,3S)-2-hydroxy-3-(N-quinaldyl-L-asparaginyl)amino-4-phenylbutyl]carbazate] | 1 | 25 | 7.3 ± 0.7 | 1 | 50 |  |
| CC(C)N(C[C@H](O)[C@H](Cc1ccccc1)NC(=O)[C@H](CC(N)=O)NC(=O)c1ccc2ccccc2n1)NC(=O)OC(C)(C)C [Compound 7B, t-Butyl 3-isogrooyl-3-[(2S, 3S)-2-hydroxy-3-(N-quinaldyl-L-asparaginyl)amino-4-phenylbutyl]carbazate] | 0.1 | > 200 | < 3.5 | 0.1 | 200 | lower toxicity to the cells |
| CC(C)N(C[C@@H](O)[C@H](Cc1ccccc1)NC(=O)[C@H](CC(N)=O)NC(=O)c1ccc2ccccc2n1)NC(=O)c1ccccc1NC(=O)OCc1ccccn1 [Compound 8, 1-(2-Pyridyl)methoxycarbonylanthranilyl-2-[(2R,3S)-2-hydroxy-3-(N-quinaldoyl-L-asparaginyl)amino4-phenylbutyl]-2-isopropyl-hydrazine] | 0.1 | > 100 |  | 0.1 | > 100 | lower toxicity to the cells |
| CC(C)(C)OC(=O)NN(C[C@H](O)[C@H](Cc1ccccc1)NC(=O)[C@H](CC(N)=O)NC(=O)c1ccc2ccccc2n1)C1CCCCC1 [Compound 17, t-Butyl 3-cyclohexyl-3-[(2S,3S)-2-hydroxy-3-(N-quinaldyl-L-asparaginyl)amino-4-phenylbutyl]carbazate] | 0.1 | 200 |  | 0.1 | 100 | lower toxicity to the cells |

Source: patent publication US6258806A, “Amine derivatives of oxo- and hydroxy- substituted hydrocarbons” (Narhex Limited, priority 1992, dated 2001)
